Structures are written as SMILES. Where “and” joins values, the source holds several entries; their conditions need not be identical. Identical values can stand only once.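 Where inhibition never reached the appropriate level, the endpoint shown equals the highest concentration tested. Otherwise, values were interpolated linearly from a five-concentration, 48-hour dose response in 96-well plates. GI50 is the concentration that inhibits growth by half. TGI marks complete inhibition of growth.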

Drawing on PubChem BioAssay (NCI), this text covers TGI and GI50 for 14 compounds.

What all share (assay): NCI anticancer screen, dose series, 48 h
The test system of test [1] is NCI/ADR-RES ovarian.
Test [2] concerns TK-10 renal.
The test system of test [3] is T-47D breast.
Test [4] has as its system MALME-3M melanoma.
The test system of test [5] is PC-3 prostate.
For test [6], the system named is DU-145 prostate.
For test [7], the system named is MDA-MB-231 breast.
Test [8] deals with MDA-MB-435.
The subject of test [9] is RXF 393 renal.
In test [10] the test system is OVCAR-4 ovarian.
The subject of test [11] is MDA-N.
Test [12] relates to HS 578T breast.
Test [13] deals with BT-549 breast.
Test [14] relates to SNB-19 CNS.
The subject of test [15] is MOLT-4 leukemia.
In test [16] the test system is COLO 205 colon.
In test [17] the test system is MCF7 breast.
Test [18] concerns CCRF-CEM leukemia.
The test system of test [19] is HCC-2998 colon.

Regarding `Cc1cc2sc(C)[n+](CCCOS(=O)(=O)[O-])c2cc1C`, the TGI in test [1], in [2], in test [3], in [4], in test [5] and in [6] was more than 100 µM in each case. For the same compound, the TGI in test [7], in test [8], in [9], in test [10], in test [11] and in test [12] was more than 100 µM throughout. The TGI in test [13], in [14], in test [15], in [16] and in [17] was more than 100 µM in each case.
For `C/C=C(\C)C(=O)OC1C(C)=C2C(C1OC(=O)CCCC)C(C)(OC(C)=O)CC(OC(=O)CCCC)C1(O)C2OC(=O)C1(C)O` (stereo not given), the TGI in test [18] is more than 100 µM; in test [1], more than 100 µM; in test [2], more than 100 µM; in [3] it was more than 100 µM; in test [5] it was more than 37.5 µM; in test [19], more than 100 µM. Also, the TGI was more than 100 µM in test [6]; 5.87 µM in [7]; more than 100 µM in test [8]; more than 100 µM in [9]; more than 100 µM in test [10]; more than 100 µM in [11]. For the same compound, the TGI in [12] was more than 100 µM; in test [13], more than 100 µM; in test [14] it was more than 100 µM; in test [15], more than 100 µM; in test [16], 2.58 µM; in test [17], more than 100 µM.
With `O=C(O)NCC1CCCCC1` (tested in a mixture with another compound), the TGI in test [18] was more than 100 µM; in [1], 83.8 µM; in [2] it was more than 100 µM; in test [4] it was 7.15 µM; in test [5], 46.4 µM; in [6] it was 50.7 µM. Besides, the TGI was 44.9 µM in [7]; 58.1 µM in [8]; 45.9 µM in [9]; more than 100 µM in test [10]; 47.7 µM in test [11]; 72.6 µM in test [13]. The TGI in test [14] and in test [15] was more than 100 µM in each case.
On to `OC(c1cc(-c2ccc(Cl)cc2)nc2ccccc12)C1CCCCN1` (stereo not given), for which the TGI was found to be 2.52 µM in [18]; 5.79 µM in test [1]; 9.85 µM in test [2]; 2.96 µM in test [3]; 2.94 µM in test [4]; 3.79 µM in test [5]. Moreover, the TGI in test [19] was found to be 3.94 µM; in [6] it was 3.45 µM; in test [7], 3.58 µM; in test [8] it was 4.35 µM; in test [9], 0.315 µM; in [10], 5.11 µM. Besides, the TGI in [11] is 3.7 µM; in test [12], 4.34 µM; in test [13] it was 16 µM; in test [14] it was 37.6 µM; in test [15], 4.52 µM; in test [16], 3.19 µM. Further, the TGI in test [17] is 3.03 µM.
For the compound `C1CSC(=[N+]2CC[N+](=C3SCCS3)CC2)S1`, the TGI in test [18], in test [2], in test [4], in test [19], in [9] and in test [10] was more than 100 µM in each case. The TGI in test [14], in test [15] and in test [16] was more than 100 µM each time.
Consider `COC(=O)c1cc2cc3c(c(O)c2c(=O)o1)O[C@@]1(Oc2c(O)c4c(c(O)c2[C@H]1OC1CC(OC)C(O)C(C)O1)C(=O)C=C(OC)C4=O)[C@H](O)C3` (stereo not given in full), for which the TGI in test [1] was more than 100 µM; in test [2], 17.5 µM; in [3] it was 7.2 µM; in test [5], 12.2 µM; in [6], 7.87 µM; in test [7] it was 5.95 µM. The TGI in test [8] is 7.47 µM; in [9] it was 3.25 µM; in [10], 2.89 µM; in test [11], more than 100 µM; in [13], 4.93 µM; in test [14] it was 12.6 µM. Further, the TGI in test [15] was 6.22 µM; in test [16], 14.1 µM; in [17], 10.1 µM.
Take `Nc1c(C(=O)Nc2ccc(C3=NCCN3)cc2)cccc1C(=O)Nc1ccc(C2=NCCN2)cc1`: the TGI in [18], in [1], in [4], in test [19], in [9] and in test [10] was more than 100 µM in each case. For the same compound, the TGI in test [14], in test [15], in test [16] and in test [17] was more than 100 µM each time.
On to `O=C(NC1C=Nc2ccc([N+](=O)[O-])cc2NC1=O)c1cc(Cl)cc([N+](=O)[O-])c1` (stereo not given), for which the TGI in [18], in test [2], in test [19], in test [9], in [10] and in [14] was more than 100 µM throughout. The TGI in test [15] and in test [16] was more than 100 µM each time.
On to `C[n+]1c2ccccc2c(NC(CS)C(=O)O)c2ccccc21` (stereo not given), for which the TGI was more than 100 µM in [2]; more than 100 µM in [4]; more than 100 µM in test [19]; 60.7 µM in [9]; more than 100 µM in test [10]; more than 100 µM in [14]. In addition, the TGI was 38.6 µM in test [15] and more than 100 µM in test [16].
Turning to `CC(C)(C)NCC(O)c1ccc(O)c(CO)n1` (stereo not given), the TGI in test [1], in test [2], in [3], in test [5], in test [19] and in test [6] was more than 100 µM each time. In addition, the TGI in test [7], in [8], in test [9], in [10], in test [11] and in test [12] was more than 100 µM in each case. Further, the TGI in [13], in [14], in test [15], in [16] and in test [17] was more than 100 µM each time.
As for `Cc1ccc(N=Nc2ccc(N)cc2C)c(S(N)(=O)=O)c1`, the TGI in test [18], in test [1], in test [2], in test [3], in [4] and in test [5] was more than 100 µM in each case. The TGI in test [6], in test [7], in [9], in test [10], in test [11] and in test [12] was more than 100 µM throughout. For the same compound, the TGI in [13], in [14], in test [15], in test [16] and in [17] was more than 100 µM each time.
Turning to `Oc1ccc(Cc2nccc3cc(O)c(O)cc23)cc1O`, the TGI in [18] is 60.3 µM; in test [1], more than 100 µM; in [2], more than 100 µM; in [3], more than 100 µM; in [4], more than 100 µM; in [5], more than 100 µM. For the same compound, the TGI in test [6], in test [7], in [8], in test [9], in test [10] and in [11] was more than 100 µM each time. Moreover, the TGI is more than 100 µM in [12]; more than 100 µM in [13]; more than 100 µM in test [14]; more than 100 µM in [15]; 51.3 µM in test [16]; 49.6 µM in [17].
Consider `CC(C)(C)C(=O)CP(=O)(O)O`, for which the TGI in test [18], in [1], in test [2], in [3], in test [4] and in test [5] was more than 100 µM in each case. Besides, the TGI in test [6], in test [7], in [8], in test [9], in test [10] and in [11] was more than 100 µM throughout. Further, the TGI in [12], in [13], in test [14], in test [15], in test [16] and in test [17] was more than 100 µM each time.
With `C[n+]1ccc(Nc2ccc(NC(=O)c3ccc(Nc4cc[n+](C)c5ccc([N+](=O)[O-])cc45)cc3[N+](=O)[O-])cc2)cc1`, the TGI in test [18] is more than 100 µM; in test [1], more than 100 µM; in test [2], more than 100 µM; in [4] it was 61.2 µM and 53.9 µM; in test [19] it was more than 100 µM; in test [9], more than 100 µM. For the same compound, the TGI is more than 100 µM in test [10]; more than 100 µM in [14]; more than 100 µM in [15]; more than 100 µM in [16]; more than 58.3 µM in test [17]. The GI50 in test [17] is 1250 nM and 3340 nM.
